The values below are quoted from earlier work in US20170042143A1, “ANIONIC POLYVINYL ALCOHOL COPOLYMER AS PROTECTIVE COLLOID FOR PESTICIDAL POLYUREA MICROCAPSULES” (BASF SE, priority 2014, published 2017).

The conditions of the series: at 20° C.

As for `Cc1ccccc1CO[C@@H]1C[C@@]2(C(C)C)CC[C@]1(C)O2` (racemic) [Cinmethylin], the solubility in water entry is “about 0.06 g/l”.
